Results on 4 molecules are retold here after US12351829B2, “Generation, proliferation and expansion of epithelial cells from primary tissue into mucosoid cultures” (Max-Planck-Gesellschaft zur Förderung der Wissenschaften …, priority 2018, dated 2025).

In assay [1] the test system is parietal cells in corpus-stomach mucosoid culture. The conditions noted are these: BMP4-induced corpus mucosoid culture; 10 μl of 5 mM Histamin solution. As to the method: Specific signals are needed to drive the parietal cell lineages and in particular the activation of BMP4 and the suppression MEK/MAPK pathway.
Three corpus samples were taken at passage 4 in ALI and grown for 13 days in regular medium following by 2 weeks treatment with 50 ng/ml of BMP4 and removal of Noggin and EGF. The Corpus-gEPMs on filters were pre-incubated with […] Acridine Orange for 15 min. The filter was cut out of the insert and mounted with the cells facing the glass on a IBIDI chamber with 400 μl of media (the same with AO). A coverslip was put on top. Images were taken with 25× (Glycerol) for 10 min to stabilize the filter and avoid movements. A solution of 10 μl of 5 mM Histamin in medium was applied on the border of the coverslip while imaging. Fluorescence of acridine orange was excited at 488 nm (3-4%) and images were collected in a time series (10sec) at 500-550 nm and 600-650.

Assay [2] relates to IL-8 expression in gastric-antrum mucosoid cultures. Description: Pro-inflammatory stimulation of gastric-antrum mucosoid cultures, IL-8 qPCR. It is filed as cell-based, human. The conditions noted are these: 10 μg/ml TNF-α or 5 μg/ml IL-1β for 3 days; +W+R and −W−R cultures. As to the method: Filters were cut out of the insert and directly transferred to a tube containing 1 ml Trizol (Thermo). After vortexing samples were incubated for 10 min at RT, vortexed again and frozen at −80° C. for long-term storage. 500 μl of chloroform was added to thawed samples before vortexing, incubation for 2 min at RT and centrifugation for 15 min at 4° C. The aqueous phase was mixed with isopropanol, inverted 6× and incubated for 10 min at RT. The sample was transferred to a total RNA isolation Kit column (Thermo) and processed according to the manufacturer's instructions. Total RNA was measured using a NanoDrop and reverse transcription carried out using the Tetro cDNA synthesis Kit (Bioline). DNA was extracted using AllPrep DNA/RNA Mini Kit (Qiagen) according to the manufacturer's instructions; Total DNA was measured using a NanoDrop. qPCR (Step One, Applied Biosystem) was performed using the SensiMix™ SYBR® hi-ROX Kit (Bioline, 3-step cycling according to the manufacturer).
FIG. 16. Antral mucosoid cultures derived from 3 different patients were cultivated for 13 days. Parallel samples were differentiated by excluding Wnt3A and RSPO1 from the culture for 5 days (A)(B) treatment with 10 μg/ml TNF-α or 5 μg/ml IL-1Iβ for 3 days. Expression of IL-8 was analysed by qPCR and normalized to untreated control cells in +W+R medium. ns: not significant; *p<0.005, unpaired t-test. […]
On the technique in general: In qPCR the cycle at which signal appears reflects the starting amount.

For assay [3], the system named is ATP4B+ parietal cells in gastric-corpus derived mucosoid cultures. Description: BMP4-induced parietal cell differentiation in corpus-stomach mucosoid culture (ATP4B IF). The class given is cell-based, human. The following applies: 50 ng/ml BMP4 for two weeks, absence of Noggin and EGF; untreated 0,4%.

For the molecule `NCCc1c[nH]cn1` [histamine], the “acid production (acridine orange changes to orange)” value in assay [1] was “able to produce acid”.

“IL1-β: recombinant pro-inflammatory cytokine”: the “IL-8 expression (qPCR)” value in assay [2] is “induced IL-8 preferentially in +W+R cultures”.

For TNF-α, the “IL-8 expression (qPCR)” value in assay [2] is given as “induced IL-8 expression regardless of W/R”.

B1: BMP4: BMP pathway activator provided at 50 ng/ml to drive parietal cell lineage (protein, UniProt P12644 293-408, looked up)
Bone morphogenetic protein 4: SPKHHSQRARKKNKNCRRHSLYVDFSDVGWNDWIVAPPGYQAFYCHGDCPFPLADHLNSTNHAIVQTLVNSVNSSIPKACCVPTELSAISMLYLDEYDKVVLKNYQEMVVEGCGCR
B1: the “ATP4B+ parietal cells” value in assay [3] is recorded as 2,4%.
